According to ChEMBL document CHEMBL1201862, “PubChem BioAssay data set” (2004):
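Cells were grown in 96-well plates and exposed to each compound for 48 hours at five concentrations; endpoints were interpolated linearly between bracketing concentrations, or set to the highest concentration if not reached. GI50 marks 50% less growth.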 Activity calls are given as the source filed them. Rule as the data show it: active = GI50 up to about 1.1 µM and inactive = higher.

How the values were obtained:
Test in all cases: NCI anticancer screen, dose series, 48 h
NCI-H460 = test system: NCI-H460
SW-620 = test system: SW-620
LOX IMVI = test system: LOX IMVI
MDA-MB-231 = test system: MDA-MB-231
SK-OV-3 = test system: SK-OV-3
UO-31 = test system: UO-31
NCI-H226 = test system: NCI-H226
MDA-MB-435 = test system: MDA-MB-435
MDA-N = test system: MDA-N
T47D = test system: T47D
HOP-62 = test system: HOP-62
TK-10 = test system: TK-10
SNB-19 = test system: SNB-19
COLO 205 = test system: COLO 205
SR = test system: SR
Hs-578T = test system: Hs-578T
NCI/ADR-RES = test system: NCI/ADR-RES
SK-MEL-2 = test system: SK-MEL-2
OVCAR-3 = test system: OVCAR-3
786-0 = test system: 786-0

Measured: GI50

CSc1ccc(/C=C/C(=O)c2nc3ccccc3[nH]2)cc1
inactive: NCI-H460 18.4 µM | SW-620 9.29 µM | LOX IMVI 14.5 µM | MDA-MB-231 10 µM | SK-OV-3 27.5 µM | UO-31 3.66 µM | NCI-H226 13.6 µM | MDA-MB-435 6.22 µM | MDA-N 7.36 µM | T47D 3.95 µM | HOP-62 24.3 µM | TK-10 3.58 µM | SNB-19 16.1 µM | COLO 205 18.1 µM | SR 2.35 µM | Hs-578T 37.2 µM | NCI/ADR-RES 20.1 µM | SK-MEL-2 18.1 µM | OVCAR-3 16.6 µM | 786-0 12.7 µM

Cc1cc(=O)n2nc(CSc3nnc(S)s3)sc2n1
inactive: NCI-H460 > 100 µM | SW-620 > 100 µM | LOX IMVI > 100 µM | MDA-MB-231 > 100 µM | SK-OV-3 > 100 µM | UO-31 > 100 µM | NCI-H226 > 100 µM | MDA-MB-435 > 100 µM | MDA-N > 100 µM | T47D > 100 µM | HOP-62 > 100 µM | TK-10 > 100 µM | SNB-19 > 100 µM | COLO 205 > 100 µM | SR > 100 µM | Hs-578T > 100 µM | NCI/ADR-RES > 100 µM | SK-MEL-2 > 100 µM | OVCAR-3 > 100 µM | 786-0 > 100 µM

O=C1CCCC2C3CC(CN12)C1CCCCN1C3.[O-][Cl+3]([O-])([O-])O (stereo not given)
inactive: NCI-H460 > 100 µM | SW-620 > 100 µM | LOX IMVI > 100 µM | MDA-MB-231 > 100 µM | SK-OV-3 > 100 µM | UO-31 > 100 µM | NCI-H226 > 100 µM | MDA-MB-435 > 100 µM | MDA-N > 100 µM | T47D > 100 µM | HOP-62 > 100 µM | TK-10 > 100 µM | SNB-19 > 100 µM | COLO 205 > 100 µM | SR > 100 µM | Hs-578T > 100 µM | NCI/ADR-RES > 100 µM | SK-MEL-2 > 100 µM | OVCAR-3 > 100 µM | 786-0 > 100 µM

O=c1[nH]c(=O)n(C2COC(CO)C2O)cc1F (stereo not given)
inactive: NCI-H460 4.98 µM | SW-620 55.3 µM | LOX IMVI 11 µM | MDA-MB-231 > 100 µM | SK-OV-3 74.6 µM | UO-31 14.6 µM | NCI-H226 > 100 µM | MDA-MB-435 48.9 µM | MDA-N 25.2 µM | T47D 50.6 µM | HOP-62 17.7 µM | TK-10 68.1 µM | SNB-19 > 100 µM | COLO 205 25.1 µM | SR 95.3 µM | Hs-578T > 100 µM | NCI/ADR-RES 72.1 µM | SK-MEL-2 61.4 µM | OVCAR-3 15.5 µM | 786-0 70 µM

CCCC[C@@H](C)/C=C1\CN2CCC[C@H]2[C@@](C)(O)[C@@H]1O
inactive: NCI-H460 16.7 µM | SW-620 > 100 µM | LOX IMVI 22.8 µM | MDA-MB-231 > 100 µM | SK-OV-3 73.3 µM | UO-31 50.7 µM | NCI-H226 > 100 µM | MDA-MB-435 96.2 µM | MDA-N > 100 µM | T47D 30.8 µM | HOP-62 52.1 µM | TK-10 > 100 µM | SNB-19 58.9 µM | COLO 205 > 100 µM | SR 9.2 µM | Hs-578T > 100 µM | NCI/ADR-RES 58.9 µM | SK-MEL-2 > 100 µM | OVCAR-3 > 100 µM | 786-0 45.2 µM

[O-][S@@+]1c2ccc3ccccc3c2N[C@@H]2[C@H]1[C@H]1C=C[C@@H]2C1
inactive: NCI-H460 37.6 µM | SW-620 34 µM | LOX IMVI 31.6 µM | MDA-MB-231 32.3 µM | SK-OV-3 42.1 µM | UO-31 64.4 µM | NCI-H226 50.8 µM | MDA-MB-435 24.9 µM | MDA-N 20.8 µM | T47D 16.5 µM | HOP-62 59.4 µM | TK-10 51.1 µM | SNB-19 > 100 µM | COLO 205 46.6 µM | SR 30 µM | Hs-578T 30.1 µM | NCI/ADR-RES 25.8 µM | SK-MEL-2 37.4 µM | OVCAR-3 11.9 µM | 786-0 64.3 µM

O=C1C=C(Br)c2c(Br)sc(Br)c21
inactive: NCI-H460 19.6 µM | SW-620 3.13 µM | LOX IMVI 2.37 µM | MDA-MB-231 17.2 µM | SK-OV-3 21.4 µM | UO-31 3.4 µM | NCI-H226 32.5 µM | MDA-MB-435 10 µM | MDA-N 13.9 µM | T47D 7.13 µM | HOP-62 24.9 µM | TK-10 6.87 µM | SNB-19 17.7 µM | COLO 205 4.83 µM | SR 2.9 µM | Hs-578T 30.2 µM | NCI/ADR-RES 12.6 µM | SK-MEL-2 20.7 µM | OVCAR-3 13.4 µM | 786-0 2.53 µM
